These results are taken from ChEMBL document CHEMBL1141151, “High-affinity epidermal growth factor receptor (EGFR) irreversible inhibitors with diminished chemical reactivities as positron emission tomography (PET)-imaging agent candidates of EGFR overexpressing tumors” (J Med Chem, 2005).

Test [1] concerns the target T1, Epidermal growth factor receptor (Homo sapiens, UniProt P00533). Nature of the test: (§1) Inhibition of EGF Receptor autophosphorylation in A431 cell lysate.
In test [2] the target is T1, Epidermal growth factor receptor. The description is as §1. This is another data set of the same source.
Test [3] shares this target. Described as §1. This is another data set of the same source.
Test [4] has as its target Platelet-derived growth factor receptor (Homo sapiens, UniProt P09619+P16234). Nature of the test: Inhibition of human PDGFR kinase in intact NIHPDGFR cells. Format: cell-based.
The target in test [5] is T2, Receptor tyrosine-protein kinase erbB-2 (Homo sapiens, UniProt P04626). The test is described as follows: Inhibition of HER2 kinase in intact CSH12 cells. It is filed as cell-based.
The target in test [6] is T1, Epidermal growth factor receptor. The note with it: a-431.
Description: Inhibition of EGF Receptor autophosphorylation in A431 cell lysate; Range = 10000-50000 nM
The target in test [7] is T2, Receptor tyrosine-protein kinase erbB-2. Nature of the test: Inhibition of HER2 kinase in intact CSH12 cells; Range = 25-50 nM. It is filed as cell-based.

T1 sequence (P00533 whole entry): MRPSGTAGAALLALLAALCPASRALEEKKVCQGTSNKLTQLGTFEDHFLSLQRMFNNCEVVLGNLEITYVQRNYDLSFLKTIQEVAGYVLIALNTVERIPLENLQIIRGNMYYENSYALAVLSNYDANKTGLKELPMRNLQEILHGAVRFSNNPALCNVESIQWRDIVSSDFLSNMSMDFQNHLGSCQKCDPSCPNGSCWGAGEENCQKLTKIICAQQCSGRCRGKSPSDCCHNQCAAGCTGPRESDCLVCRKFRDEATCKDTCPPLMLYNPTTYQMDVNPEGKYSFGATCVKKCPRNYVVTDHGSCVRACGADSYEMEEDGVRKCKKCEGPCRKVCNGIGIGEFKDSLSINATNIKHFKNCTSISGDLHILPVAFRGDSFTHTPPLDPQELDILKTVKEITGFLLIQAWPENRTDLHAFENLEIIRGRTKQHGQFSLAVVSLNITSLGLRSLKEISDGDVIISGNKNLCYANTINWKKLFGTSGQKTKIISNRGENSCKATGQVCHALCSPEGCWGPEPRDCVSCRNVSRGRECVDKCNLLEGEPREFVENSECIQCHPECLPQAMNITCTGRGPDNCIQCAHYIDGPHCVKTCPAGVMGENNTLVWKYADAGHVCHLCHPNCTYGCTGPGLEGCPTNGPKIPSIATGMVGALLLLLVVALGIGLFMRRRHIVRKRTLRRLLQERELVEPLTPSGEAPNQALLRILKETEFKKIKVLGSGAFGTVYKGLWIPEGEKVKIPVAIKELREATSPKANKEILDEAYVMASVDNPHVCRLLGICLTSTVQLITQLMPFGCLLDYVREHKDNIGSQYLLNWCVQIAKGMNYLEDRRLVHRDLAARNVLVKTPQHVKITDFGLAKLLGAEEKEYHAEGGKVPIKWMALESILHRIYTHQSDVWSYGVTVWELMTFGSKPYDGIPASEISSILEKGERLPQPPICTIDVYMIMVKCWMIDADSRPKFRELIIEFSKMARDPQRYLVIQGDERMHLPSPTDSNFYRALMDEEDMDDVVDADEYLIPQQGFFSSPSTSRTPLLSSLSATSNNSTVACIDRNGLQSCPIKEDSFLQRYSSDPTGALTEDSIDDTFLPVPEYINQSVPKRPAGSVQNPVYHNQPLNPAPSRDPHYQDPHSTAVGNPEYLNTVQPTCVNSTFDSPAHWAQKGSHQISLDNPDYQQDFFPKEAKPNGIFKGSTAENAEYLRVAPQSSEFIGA
T2 sequence (P04626 whole entry): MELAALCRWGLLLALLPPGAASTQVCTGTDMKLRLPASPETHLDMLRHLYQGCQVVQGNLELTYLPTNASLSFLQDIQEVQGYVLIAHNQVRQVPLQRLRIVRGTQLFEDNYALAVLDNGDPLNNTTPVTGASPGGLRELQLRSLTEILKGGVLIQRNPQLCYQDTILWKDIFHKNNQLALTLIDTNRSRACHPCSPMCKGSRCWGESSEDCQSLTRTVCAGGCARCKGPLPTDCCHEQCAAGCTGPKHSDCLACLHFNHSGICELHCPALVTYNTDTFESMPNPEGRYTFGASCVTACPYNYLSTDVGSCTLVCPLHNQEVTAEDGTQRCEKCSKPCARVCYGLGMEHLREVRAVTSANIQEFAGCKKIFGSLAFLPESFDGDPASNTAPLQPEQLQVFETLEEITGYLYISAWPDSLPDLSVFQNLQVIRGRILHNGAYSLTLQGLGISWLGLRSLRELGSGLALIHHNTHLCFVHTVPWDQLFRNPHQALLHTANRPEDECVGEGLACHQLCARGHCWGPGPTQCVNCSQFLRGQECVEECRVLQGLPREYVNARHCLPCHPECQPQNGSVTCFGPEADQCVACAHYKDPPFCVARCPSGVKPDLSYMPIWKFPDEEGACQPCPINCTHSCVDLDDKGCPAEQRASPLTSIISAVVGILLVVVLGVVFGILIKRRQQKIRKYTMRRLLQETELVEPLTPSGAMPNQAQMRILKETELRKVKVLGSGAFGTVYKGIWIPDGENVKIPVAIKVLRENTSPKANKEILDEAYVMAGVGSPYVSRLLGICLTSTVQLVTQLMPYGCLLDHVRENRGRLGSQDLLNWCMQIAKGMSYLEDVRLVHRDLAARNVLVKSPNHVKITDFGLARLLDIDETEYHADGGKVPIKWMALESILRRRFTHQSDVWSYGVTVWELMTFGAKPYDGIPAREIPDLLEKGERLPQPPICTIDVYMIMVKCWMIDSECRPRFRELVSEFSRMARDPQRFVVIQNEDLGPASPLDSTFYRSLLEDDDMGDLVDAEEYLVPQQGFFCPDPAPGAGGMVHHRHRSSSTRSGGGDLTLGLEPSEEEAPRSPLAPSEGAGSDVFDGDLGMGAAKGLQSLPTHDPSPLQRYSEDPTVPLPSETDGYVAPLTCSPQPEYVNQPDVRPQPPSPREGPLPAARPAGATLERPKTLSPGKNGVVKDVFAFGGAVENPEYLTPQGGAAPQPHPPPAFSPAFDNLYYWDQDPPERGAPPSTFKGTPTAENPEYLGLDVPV

For the molecule `CN(C)C/C=C/C(=O)Nc1ccc2ncnc(Nc3cccc(I)c3)c2c1`, the IC50 is 0.94 nM in test [1], less than 5 nM in test [2] and less than 5 nM in test [3].

For `CN(C)C/C=C/C(=O)Nc1ccc2ncnc(Nc3cc(Cl)c(Cl)cc3F)c2c1`, the IC50 in test [4] was greater than 1000 nM.

In the case of `COCC(=O)Nc1ccc2ncnc(Nc3cccc(I)c3)c2c1`, the results for the IC50 in test [1] and in test [3] were 150 nM and 50000 nM, respectively.

For `COCC(=O)Nc1ccc2ncnc(Nc3cc(Cl)c(Cl)cc3F)c2c1`, the IC50 was 252 nM in test [1], greater than 500 nM in test [5], greater than 1000 nM in test [4] and 50000 nM in test [6].

Turning to `O=C(CCl)Nc1ccc2ncnc(Nc3cc(Cl)c(Cl)cc3F)c2c1`, the IC50 in test [7] was 50 nM; in test [1], 0.07 nM; in test [4], greater than 1000 nM.

Molecule `C=CC(=O)Nc1cc2c(Nc3cccc(Br)c3)ncnc2cc1N1CCN(C)CC1` showed an IC50 in test [3] greater than 500 nM.

Take `C=CC(=O)Nc1cc2c(Nc3cc(Cl)c(Cl)cc3F)ncnc2cc1N1CCN(C)CC1`: the IC50 in test [1] was 6000 nM; in test [2] it was 250 nM; in test [3], greater than 500 nM.

In the case of `COc1cc2ncnc(Nc3cc(Cl)c(Cl)cc3F)c2cc1OC`, the IC50 in test [1] was found to be 0.208 nM.
